In US8247211B2, “Glycopeptide antibiotics” (American Cyanamid Company, priority 2001, dated 2012):
In brackets after ≈: the same amount, converted by molar mass. One block for each compound: values may come before it.

Tests used:
Test in all cases: In vitro antibacterial evaluation: minimum inhibitory concentration (MIC), broth dilution method
Type in all cases: cell-based
Streptococcus sp. = conditions: broth dilution, 18 hours at 35° C.
Outline: (§1)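 Values are minimum inhibitory concentrations, meaning the smallest antibiotic concentration that stops growth of the organism. They come from broth dilution in Muller-Hinton II […] per NCCLS guidance (M7-A2), using 5×10^5 CFU/mL and concentrations from 64 to 0.06 μg/mL.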

Enterococcus sp. = conditions: broth dilution, 18 hours at 35° C.
Outline: as §1

Staphylococcus sp. = conditions: broth dilution, 18 hours at 35° C.; for MIC Staphylococcus aureus-SMITH (GC 4543): strain SMITH GC 4543
Outline: as §1

Escherichia coli = conditions: broth dilution, 18 hours at 35° C.
[1] = Streptococcus agalactiae (GC 4564)
[2] = Streptococcus pneumoniae (ATCC 6301)
[3] = Streptococcus pneumoniae (GC 1894)
[4] = Streptococcus pneumoniae (GC 4565)
[5] = Streptococcus pyogenes (GC 4563)
[6] = Enterococcus faecalis (ATCC 29212)
[7] = Enterococcus faecalis (GC 2242)
[8] = Enterococcus faecalis (GC 2691)
[9] = Enterococcus faecalis (GC 4553)
[10] = Enterococcus faecalis (GC 6189)

MIC Streptococcus agalactiae (GC 4564) (Streptococcus sp.; [1]): 32 µg/mL (≈ 27.2 µM)
MIC Streptococcus pneumoniae (ATCC 6301) (Streptococcus sp.; [2]): 16 µg/mL (≈ 13.6 µM)
MIC Streptococcus pneumoniae (GC 1894) (Streptococcus sp.; [3]): 32 µg/mL (≈ 27.2 µM)
MIC Streptococcus pneumoniae (GC 4565) (Streptococcus sp.; [4]): 64 µg/mL (≈ 54.3 µM)
MIC Streptococcus pyogenes (GC 4563) (Streptococcus sp.; [5]): 8 µg/mL (≈ 6.79 µM)
MIC Streptococcus agalactiae (GC 4564) (Streptococcus sp.): 32 µg/mL (≈ 27.2 µM)
MIC Streptococcus pneumoniae (ATCC 6301) (Streptococcus sp.): 16 µg/mL (≈ 13.6 µM)
MIC Streptococcus pneumoniae (GC 1894) (Streptococcus sp.): 32 µg/mL (≈ 27.2 µM)
MIC Streptococcus pneumoniae (GC 4565) (Streptococcus sp.): 64 µg/mL (≈ 54.3 µM)
MIC Streptococcus pyogenes (GC 4563) (Streptococcus sp.): 8 µg/mL (≈ 6.79 µM)
MIC Enterococcus avium (GC 4558) (Enterococcus sp.; Enterococcus avium (GC 4558)): 8 µg/mL (≈ 6.79 µM)
MIC Enterococcus faecalis (ATCC 29212) (Enterococcus sp.; [6]): 64 µg/mL (≈ 54.3 µM)
MIC Enterococcus faecalis (GC 2242) (Enterococcus sp.; [7]): 64 µg/mL (≈ 54.3 µM)
MIC Enterococcus faecalis (GC 2691) (Enterococcus sp.; [8]): 64 µg/mL (≈ 54.3 µM)
MIC Enterococcus faecalis (GC 4553) (Enterococcus sp.; [9]): 16 µg/mL (≈ 13.6 µM)
MIC Enterococcus faecalis (GC 6189) (Enterococcus sp.; [10]): 64 µg/mL (≈ 54.3 µM)
MIC Enterococcus faecium (GC 2243) (Enterococcus sp.; Enterococcus faecium (GC 2243)): 32 µg/mL (≈ 27.2 µM)
MIC Enterococcus faecium (GC 4556) (Enterococcus sp.; Enterococcus faecium (GC 4556)): 4 µg/mL (≈ 3.39 µM)
MIC Enterococcus faecium (GC 4557) (Enterococcus sp.; Enterococcus faecium (GC 4557)): 4 µg/mL (≈ 3.39 µM)
MIC Enterococcus avium (GC 4558) (Enterococcus sp.): 8 µg/mL (≈ 6.79 µM)
MIC Enterococcus faecalis (ATCC 29212) (Enterococcus sp.): 64 µg/mL (≈ 54.3 µM)
MIC Enterococcus faecalis (GC 2242) (Enterococcus sp.): 64 µg/mL (≈ 54.3 µM)
MIC Enterococcus faecalis (GC 2691) (Enterococcus sp.): 64 µg/mL (≈ 54.3 µM)
MIC Enterococcus faecalis (GC 4553) (Enterococcus sp.): 16 µg/mL (≈ 13.6 µM)
MIC Enterococcus faecalis (GC 6189) (Enterococcus sp.): 64 µg/mL (≈ 54.3 µM)
MIC Enterococcus faecium (GC 2243) (Enterococcus sp.): 32 µg/mL (≈ 27.2 µM)
MIC Enterococcus faecium (GC 4556) (Enterococcus sp.): 4 µg/mL (≈ 3.39 µM)
MIC Enterococcus faecium (GC 4557) (Enterococcus sp.): 4 µg/mL (≈ 3.39 µM)
MIC Coagulase Negative Staphylococcus (GC 4547) (Staphylococcus sp.): 8 µg/mL (≈ 6.79 µM)
MIC Coagulase Negative Staphylococcus (GC 4548) (Staphylococcus sp.): 8 µg/mL (≈ 6.79 µM)
MIC Coagulase Negative Staphylococcus (GC 4549) (Staphylococcus sp.): 16 µg/mL (≈ 13.6 µM)
MIC Coagulase Negative Staphylococcus (GC 4551) (Staphylococcus sp.): 16 µg/mL (≈ 13.6 µM)
MIC Coagulase Negative Staphylococcus (GC 6257) (Staphylococcus sp.): 4 µg/mL (≈ 3.39 µM)
MIC Staphylococcus aureus SMITH (GC 4543) (Staphylococcus sp.): 16 µg/mL (≈ 13.6 µM)
MIC Staphylococcus aureus-SMITH (GC 4543) (Staphylococcus sp.): 16 µg/mL (≈ 13.6 µM)
MIC Escherichia coli (GC 4560) (Escherichia coli): 32 µg/mL (≈ 27.2 µM)
Structure (SMILES): CC(c1ccccc1)C1NC(=O)CNC(=O)C(CO)NC(=O)C(C(O)C2CNC(=N)N2C2OC(CO)C(O)C(O)C2O)NC(=O)C(C(O)C2CNC(=N)N2)NC(=O)C(Cc2ccc3oc(-c4ccc(OCc5ccccc5)cc4)nc3c2)NC1=O (stereo not drawn) [Example 31, Cyclo[3-[2-[4-(phenylmethoxy)phenyl]-1,3-benzoxazol-5-yl]alanyl-3-(2-iminoimidazolidin-4-yl)seryl-3-(3-hexopyranosyl-2-iminoimidazolidin-4-yl)serylserylglycyl-β-methyl-phenylalanyl]]
MIC Staphylococcus haemolyticus (GC 4546) (Staphylococcus sp.): 8 µg/mL (≈ 6.79 µM)

MIC Streptococcus agalactiae (GC 4564) (Streptococcus sp.; [1]): 16 µg/mL (≈ 14.2 µM)
MIC Streptococcus pneumoniae (ATCC 6301) (Streptococcus sp.; [2]): 16 µg/mL (≈ 14.2 µM)
MIC Streptococcus pneumoniae (GC 1894) (Streptococcus sp.; [3]): 16 µg/mL (≈ 14.2 µM)
MIC Streptococcus pneumoniae (GC 4565) (Streptococcus sp.; [4]): 16 µg/mL (≈ 14.2 µM)
MIC Streptococcus pyogenes (GC 4563) (Streptococcus sp.; [5]): 8 µg/mL (≈ 7.09 µM)
MIC Streptococcus agalactiae (GC 4564) (Streptococcus sp.): 16 µg/mL (≈ 14.2 µM)
MIC Streptococcus pneumoniae (ATCC 6301) (Streptococcus sp.): 16 µg/mL (≈ 14.2 µM)
MIC Streptococcus pneumoniae (GC 1894) (Streptococcus sp.): 16 µg/mL (≈ 14.2 µM)
MIC Streptococcus pneumoniae (GC 4565) (Streptococcus sp.): 16 µg/mL (≈ 14.2 µM)
MIC Streptococcus pyogenes (GC 4563) (Streptococcus sp.): 8 µg/mL (≈ 7.09 µM)
MIC Enterococcus avium (GC 4558) (Enterococcus sp.; Enterococcus avium (GC 4558)): 4 µg/mL (≈ 3.55 µM)
MIC Enterococcus faecalis (ATCC 29212) (Enterococcus sp.; [6]): 8 µg/mL (≈ 7.09 µM)
MIC Enterococcus faecalis (GC 2242) (Enterococcus sp.; [7]): 4 µg/mL (≈ 3.55 µM)
MIC Enterococcus faecalis (GC 2691) (Enterococcus sp.; [8]): 8 µg/mL (≈ 7.09 µM)
MIC Enterococcus faecalis (GC 3059) (Enterococcus sp.; Enterococcus faecalis (GC 3059)): 8 µg/mL (≈ 7.09 µM)
MIC Enterococcus faecalis (GC 4552) (Enterococcus sp.; Enterococcus faecalis (GC 4552)): 8 µg/mL (≈ 7.09 µM)
MIC Enterococcus faecalis (GC 4553) (Enterococcus sp.; [9]): 8 µg/mL (≈ 7.09 µM)
MIC Enterococcus faecalis (GC 4554) (Enterococcus sp.; Enterococcus faecalis (GC 4554)): 4 µg/mL (≈ 3.55 µM)
MIC Enterococcus faecalis (GC 6189) (Enterococcus sp.; [10]): 4 µg/mL (≈ 3.55 µM)
MIC Enterococcus faecium (GC 2243) (Enterococcus sp.; Enterococcus faecium (GC 2243)): 4 µg/mL (≈ 3.55 µM)
MIC Enterococcus faecium (GC 4556) (Enterococcus sp.; Enterococcus faecium (GC 4556)): 8 µg/mL (≈ 7.09 µM)
MIC Enterococcus faecium (GC 4557) (Enterococcus sp.; Enterococcus faecium (GC 4557)): 2 µg/mL (≈ 1.77 µM)
MIC Enterococcus avium (GC 4558) (Enterococcus sp.): 4 µg/mL (≈ 3.55 µM)
MIC Enterococcus faecalis (ATCC 29212) (Enterococcus sp.): 8 µg/mL (≈ 7.09 µM)
MIC Enterococcus faecalis (GC 2242) (Enterococcus sp.): 4 µg/mL (≈ 3.55 µM)
MIC Enterococcus faecalis (GC 2691) (Enterococcus sp.): 8 µg/mL (≈ 7.09 µM)
MIC Enterococcus faecalis (GC 3059) (Enterococcus sp.): 8 µg/mL (≈ 7.09 µM)
MIC Enterococcus faecalis (GC 4552) (Enterococcus sp.): 8 µg/mL (≈ 7.09 µM)
MIC Enterococcus faecalis (GC 4553) (Enterococcus sp.): 8 µg/mL (≈ 7.09 µM)
MIC Enterococcus faecalis (GC 4554) (Enterococcus sp.): 4 µg/mL (≈ 3.55 µM)
MIC Enterococcus faecalis (GC 6189) (Enterococcus sp.): 4 µg/mL (≈ 3.55 µM)
MIC Enterococcus faecium (GC 2243) (Enterococcus sp.): 4 µg/mL (≈ 3.55 µM)
MIC Enterococcus faecium (GC 4556) (Enterococcus sp.): 8 µg/mL (≈ 7.09 µM)
MIC Enterococcus faecium (GC 4557) (Enterococcus sp.): 2 µg/mL (≈ 1.77 µM)
MIC Coagulase Negative Staphylococcus (GC 4547) (Staphylococcus sp.): 2 µg/mL (≈ 1.77 µM)
MIC Coagulase Negative Staphylococcus (GC 4548) (Staphylococcus sp.): 1 µg/mL (≈ 0.886 µM)
MIC Coagulase Negative Staphylococcus (GC 4549) (Staphylococcus sp.): 2 µg/mL (≈ 1.77 µM)
MIC Coagulase Negative Staphylococcus (GC 4551) (Staphylococcus sp.): 4 µg/mL (≈ 3.55 µM)
MIC Coagulase Negative Staphylococcus (GC 6257) (Staphylococcus sp.): 2 µg/mL (≈ 1.77 µM)
MIC Staphylococcus aureus SMITH (GC 4543) (Staphylococcus sp.): 2 µg/mL (≈ 1.77 µM)
MIC Staphylococcus aureus-SMITH (GC 4543) (Staphylococcus sp.): 2 µg/mL (≈ 1.77 µM)
MIC Escherichia coli (ATCC 25922) (Escherichia coli): 16 µg/mL (≈ 14.2 µM)
MIC Escherichia coli (GC 4559) (Escherichia coli): 16 µg/mL (≈ 14.2 µM)
MIC Escherichia coli (GC 4560) (Escherichia coli): 4 µg/mL (≈ 3.55 µM)
Structure (SMILES): CC(c1ccccc1)C1NC(=O)CNC(=O)C(CO)NC(=O)C(C(O)C2CNC(=N)N2C2OC(CO)C(O)C(O)C2O)NC(=O)C(C(O)C2CNC(=N)N2)NC(=O)C(Cc2ccc3oc(-c4ccc(C(C)(C)C)cc4)nc3c2)NC1=O (stereo not drawn) [Example 32, Cyclo[3-[2-(4-tert-butylphenyl)-1,3-benzoxazol-5-yl]alanyl-3-(2-iminoimidazolidin-4-yl)seryl-3-(3-hexopyranosyl-2-iminoimidazolidin-4-yl)serylserylglycyl-β-methylphenylalanyl]]
MIC Staphylococcus haemolyticus (GC 4546) (Staphylococcus sp.): 2 µg/mL (≈ 1.77 µM)
